Reference: ChEMBL document CHEMBL4765332, “A multi-scale systems pharmacology approach uncovers the anti-cancer molecular mechanism of Ixabepilone” (Eur J Med Chem, 2020)
Activity calls are given as the source filed them. No cut-off for these calls is given here.

What was measured:
[1] = target: T1, Apoptosis regulator Bcl-2 (Homo sapiens, UniProt P10415); assay: Binding affinity to human recombinant Bcl-2 expressed in Escherichia coli by Surface plasmon resonance assay
[2] = target: T1, Apoptosis regulator Bcl-2; assay: Induction of Bcl-2 phosphorylation-mediated protein degradation in human MDA-MB-231 cells assessed as decrease in Bcl-2 expression measured after 48 hrs by western blot analysis; format: cell-based; settings: dose 0.05-0.4 µM
[3] = target: T1, Apoptosis regulator Bcl-2; assay: Induction of Bcl-2 phosphorylation-mediated protein degradation in human BT549 cells assessed as decrease in Bcl-2 expression measured after 48 hrs by western blot analysis; format: cell-based; settings: BT-549, dose 0.05-0.4 µM
[4] = target: T1, Apoptosis regulator Bcl-2; assay: Induction of Bcl-2 phosphorylation-mediated protein degradation in human MCF7 cells assessed as decrease in Bcl-2 expression measured after 48 hrs by western blot analysis; format: cell-based; settings: dose 0.05-0.4 µM
[5] = target: T1, Apoptosis regulator Bcl-2; assay: Induction of Bcl-2 phosphorylation-mediated protein degradation in human MDA-MB-231 cells assessed as decrease in Bcl-2 expression at 0.1 uM by western blot analysis; format: cell-based; settings: time 12-48 hrs, TDE = time-dependent effect
[6] = target: T1, Apoptosis regulator Bcl-2; assay: Induction of Bcl-2 phosphorylation-mediated protein degradation in human BT549 cells assessed as decrease in Bcl-2 expression at 0.1 uM by western blot analysis; format: cell-based; settings: BT-549, time 12-48 hrs, TDE = time-dependent effect
[7] = target: T1, Apoptosis regulator Bcl-2; assay: Induction of Bcl-2 phosphorylation-mediated protein degradation in human MCF7 cells assessed as decrease in Bcl-2 expression at 0.1 uM by western blot analysis; format: cell-based; settings: time 12-48 hrs, TDE = time-dependent effect
[8] = target: T1, Apoptosis regulator Bcl-2; assay: Induction of Bcl-2 phosphorylation-mediated protein degradation in human MDA-MB-231 cells assessed as disruption of Bcl2/Beclin1 interaction at 0.2 uM measured after 48 hrs by co-immunoprecipitation analysis; format: cell-based
MDA-MB-231 [9] = assay: Induction of autophagy in human MDA-MB-231 cells assessed as increase in LC3-II level measured after 48 hrs by Western blot analysis; format: functional, cell-based; settings: dose 0.05-0.4 µM
BT-549 [10] = assay: Induction of autophagy in human BT-549 cells assessed as increase in LC3-II level measured after 48 hrs by Western blot analysis; format: functional, cell-based; settings: dose 0.05-0.4 µM
MCF7 [11] = assay: Induction of autophagy in human MCF-7 cells assessed as increase in LC3-II level measured after 48 hrs by Western blot analysis; format: functional, cell-based; settings: dose 0.05-0.4 µM
MDA-MB-231 [12] = assay: Induction of autophagy in human MDA-MB-231 cells assessed as increase in LC3-II level at 0.1 uM by Western blot analysis; format: functional, cell-based; settings: time 12-48 hrs, TDE = time-dependent effect
BT-549 [13] = assay: Induction of autophagy in human BT-549 cells assessed as increase in LC3-II level at 0.1 uM by Western blot analysis; format: functional, cell-based; settings: time 12-48 hrs, TDE = time-dependent effect
MCF7 [14] = assay: Induction of autophagy in human MCF7 cells assessed as increase in LC3-II level at 0.1 uM by Western blot analysis; format: functional, cell-based; settings: time 12-48 hrs, TDE = time-dependent effect
BT-549 [15] = assay: Induction of autophagy in human BT-549 cells transfected with GFP-LC3 assessed as increase in GFP-LC3 puncta formation after 12 hrs by fluorescence microscopic analysis; format: functional, cell-based
MDA-MB-231 [16] = assay: Induction of autophagy in human MDA-MB-231 cells assessed increase in LC3-II level at 0.1 to 0.2 uM preincubated with 20 uM autophagosome-lysosome fusion inhibitor, chloroquine for 1 hr followed by incubation with compound for 48 hrs by western blot analysis; format: functional, cell-based; settings: dose 0.1-0.2 µM
BT-549 [17] = assay: Induction of autophagy in human BT-549 cells assessed increase in LC3-II level at 0.1 to 0.2 uM preincubated with 20 uM autophagosome-lysosome fusion inhibitor, chloroquine for 1 hr followed by incubation with compound for 48 hrs by western blot analysis; format: functional, cell-based; settings: dose 0.1-0.2 µM
BT-549 [18] = assay: Induction of autophagy in human BT-549 cells expressing mRFP-EGFP-LC3B assessed as accumulation of yellow fluorescence signals measured after 12 hrs by fluorescence microscopic analysis; format: functional, cell-based
MDA-MB-231 [19] = assay: Cytotoxicity against human MDA-MB-231 cells at 0.1 to 1.6 uM measured after 48 hrs in presence of 20 uM autophagy inhibitor, chloroquine by CCK8 assay; format: functional, cell-based; settings: dose 0.1-1.6 µM
BT-549 [20] = assay: Cytotoxicity against human BT-549 cells at 0.1 to 1.6 uM measured after 48 hrs in presence of 20 uM autophagy inhibitor, chloroquine by CCK8 assay; format: functional, cell-based; settings: dose 0.1-1.6 µM
MCF7 [21] = assay: Cytotoxicity against human MCF-7 cells at 0.1 to 1.6 uM measured after 48 hrs in presence of 20 uM autophagy inhibitor, chloroquine by CCK8 assay; format: functional, cell-based; settings: dose 0.1-1.6 µM
MDA-MB-231 [22] = assay: Cytotoxicity against human MDA-MB-231 cells at 0.1 to 1.6 uM measured after 48 hrs in presence of 2 mM autophagy inhibitor, 3-methyladenine by CCK8 assay; format: functional, cell-based; settings: dose 0.1-1.6 µM
BT-549 [23] = assay: Cytotoxicity against human BT-549 cells at 0.1 to 1.6 uM measured after 48 hrs in presence of 2 mM autophagy inhibitor, 3-methyladenine by CCK8 assay; format: functional, cell-based; settings: dose 0.1-1.6 µM
MDA-MB-231 [24] = assay: Induction of autophagy in human MDA-MB-231 cells transfected with Beclin1 siRNA assessed as LC3-II level at 0.1 uM by western blot analysis; format: functional, cell-based
MDA-MB-231 [25] = assay: Cytotoxicity against human MDA-MB-231 cells transfected with Beclin1 siRNA at 0.1 to 1.6 uM measured after 48 hrs by CCK8 assay; format: functional, cell-based; settings: dose 0.1-1.6 µM
MDA-MB-231 [26] = assay: Cytotoxicity against human MDA-MB-231 cells transfected with non-targeting siRNA at 0.1 to 1.6 uM measured after 48 hrs by CCK8 assay; format: functional, cell-based; settings: dose 0.1-1.6 µM
MDA-MB-231 [27] = assay: Induction of apoptosis in human MDA-MB-231 cells assessed as increase in cleaved caspase 3 level pretreated with 20 uM autophagy inhibitor, CQ for 1 hr followed by incubation with drug for 48 hrs by western blot analysis; format: functional, cell-based
BT-549 [28] = assay: Induction of apoptosis in human BT-549 cells assessed as increase in cleaved caspase 3 level pretreated with 20 uM autophagy inhibitor, CQ for 1 hr followed by incubation with drug for 48 hrs by western blot analysis; format: functional, cell-based
BT-549 [29] = assay: Induction of apoptosis in human BT-549 cells transfected with Beclin1 siRNA assessed as increase in cleaved caspase-3 level measured after 48 hrs by western blot analysis; format: functional, cell-based
MDA-MB-231 [30] = assay: Induction of apoptosis in human MDA-MB-231 cells assessed as increase in cleaved PARP level pretreated with 20 uM autophagy inhibitor, CQ for 1 hr followed by incubation with drug for 48 hrs by western blot analysis; format: functional, cell-based
BT-549 [31] = assay: Induction of apoptosis in human BT-549 cells assessed as increase in cleaved PARP level pretreated with 20 uM autophagy inhibitor, CQ for 1 hr followed by incubation with drug for 48 hrs by western blot analysis; format: functional, cell-based

T1 sequence (P10415 whole entry): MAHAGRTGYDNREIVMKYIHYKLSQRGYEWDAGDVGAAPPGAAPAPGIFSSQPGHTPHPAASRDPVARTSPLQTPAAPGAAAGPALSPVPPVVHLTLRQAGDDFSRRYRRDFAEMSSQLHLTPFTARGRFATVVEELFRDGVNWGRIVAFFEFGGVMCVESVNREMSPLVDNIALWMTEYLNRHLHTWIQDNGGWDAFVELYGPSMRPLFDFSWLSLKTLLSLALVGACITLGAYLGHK

`C/C(=C\c1csc(C)n1)[C@@H]1C[C@@H]2O[C@]2(C)CCC[C@H](C)[C@H](O)[C@@H](C)C(=O)C(C)(C)[C@@H](O)CC(=O)N1` [IXABEPILONE] was tested. Which Kd [1] did it give?
The Kd was 337 nM.

And the Activity [2]?
Its Activity is “Dose-dependent effect”.

And the Activity [3]?
Its Activity is “Dose-dependent effect”.

What about the Activity [4] of the same compound?
Its Activity is “Dose-dependent effect”.

And the Activity [5]?
The Activity was “Tde”.

And the Activity [6]?
Its Activity is “Tde”.

And the Activity [7]?
Its Activity is “Tde”.

And the Activity [8]?
The Activity was “Active”.

And the Activity (MDA-MB-231 [9])?
Its Activity is “Dose-dependent effect”.

What about the Activity (BT-549 [10]) of the same compound?
Its Activity is “Dose-dependent effect”.

What about the Activity (MCF7 [11]) of the same compound?
Its Activity is “Dose-dependent effect”.

And the Activity (MDA-MB-231 [12])?
The Activity was “Tde”.

What about the Activity (BT-549 [13]) of the same compound?
Its Activity is “Tde”.

And the Activity (MCF7 [14])?
Its Activity is “Tde”.

And the Activity (BT-549 [15])?
The Activity was “Active”.

And the Activity (MDA-MB-231 [16])?
The Activity was “Active”.

What about the Activity (BT-549 [17]) of the same compound?
The Activity was “Active”.

And the Activity (BT-549 [18])?
The Activity was “Active”.

What about the Activity (MDA-MB-231 [19]) of the same compound?
The Activity was “Active”.

What about the Activity (BT-549 [20]) of the same compound?
Its Activity is “Active”.

What about the Activity (MCF7 [21]) of the same compound?
The Activity was “Active”.

And the Activity (MDA-MB-231 [22])?
The Activity was “Active”.

And the Activity (BT-549 [23])?
The Activity was “Active”.

And the Activity (MDA-MB-231 [24])?
Its Activity is “inactive”.

And the Activity (MDA-MB-231 [25])?
The Activity was “Active”.

And the Activity (MDA-MB-231 [26])?
Its Activity is “Active”.

What about the Activity (MDA-MB-231 [27]) of the same compound?
Its Activity is “Active”.

And the Activity (BT-549 [28])?
Its Activity is “Active”.

What about the Activity (BT-549 [29]) of the same compound?
Its Activity is “Active”.

What about the Activity (MDA-MB-231 [30]) of the same compound?
Its Activity is “Active”.

And the Activity (BT-549 [31])?
Its Activity is “Active”.
